What is called Ki is a dissociation constant, usually derived from enzyme kinetics or from competition with a known ligand. For orientation: Kd means a measure of binding affinity in units of concentration.

Where only a bound is given, the exact number is not on record here.

The target in experiment [1] is Sigma non-opioid intracellular receptor 1 (Homo sapiens, UniProt Q99720). Put plainly: Displacement of [3H](+)-pentazocine from recombinant sigma 1 receptor (unknown origin) expressed in baculovirus infected Sf9 cell membranes after 1.5 hrs by scintillation counting analysis. In general terms: Displacement assays read how much labelled ligand stays bound in the presence of the test substance.

A short description of experiment [2]: Selectivity ratio of Ki for displacement of [3H](+)-DTG from recombinant sigma 2 receptor (unknown origin) expressed in baculovirus infected Sf9 cell membranes to Ki for displacement of [3H](+)-pentazocine from recombinant sigma 1 receptor (unknown origin) expressed in baculovirus infected Sf9 cell membranes. To be noted: Homo sapiens.
Experiment [3] has as its target Sigma intracellular receptor 2 (Homo sapiens, UniProt Q5BJF2). Nature of the experiment: Displacement of [3H](+)-DTG from recombinant sigma 2 receptor (unknown origin) expressed in baculovirus infected Sf9 cell membranes after 1.5 hrs by scintillation counting analysis.

Sequence of Sigma non-opioid intracellular receptor 1 (Q99720 whole entry): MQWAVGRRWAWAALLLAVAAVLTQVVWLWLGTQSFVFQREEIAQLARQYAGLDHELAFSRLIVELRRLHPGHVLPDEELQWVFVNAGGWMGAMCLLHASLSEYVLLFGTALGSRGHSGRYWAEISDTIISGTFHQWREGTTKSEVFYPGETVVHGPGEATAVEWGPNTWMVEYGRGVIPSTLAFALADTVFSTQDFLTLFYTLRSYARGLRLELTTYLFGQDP
Sequence of Sigma intracellular receptor 2 (Q5BJF2 whole entry): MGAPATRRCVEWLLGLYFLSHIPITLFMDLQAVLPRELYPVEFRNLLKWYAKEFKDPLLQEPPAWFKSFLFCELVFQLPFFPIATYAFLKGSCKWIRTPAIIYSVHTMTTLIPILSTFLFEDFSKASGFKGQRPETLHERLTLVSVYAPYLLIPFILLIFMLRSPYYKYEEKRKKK

On to `FC(F)(F)c1cccc(-c2ccc(CNCc3cccnc3)o2)c1`, for which, in experiment [1], the Ki amounted to 191 nM.
Consider `Cc1nn(-c2ccccc2Cl)c(Cl)c1CNCc1cc(F)cc(F)c1`, for which the Ratio Ki in experiment [2] came to 6. For the same compound, the Ki in experiment [1] amounted to 164 nM; in experiment [3], 985 nM.
For `O=C(c1c[nH]c2ccccc12)N1CCC(N2CCc3ccccc3C2)C1` (stereo not given), the Kd in experiment [1] and in experiment [3] was more than 1000 nM in each case.
As to `NC(Cc1ccccc1)C(=O)N1CCN(c2ccc3nccn3n2)CC1` (stereo not given), the Kd in experiment [1] and in experiment [3] was more than 1000 nM each time.
Turning to `CC(CCc1c[nH]c2ccccc12)NC1CCN(C(=O)C(C)C)CC1` (stereo not given), the Kd in experiment [1] and in experiment [3] was more than 1000 nM throughout.
Consider `Cc1c(C(=O)NC(CN(C)C)c2ccccc2)cnn1-c1ccc(F)cc1` (stereo not given), for which the Kd in experiment [1] and in experiment [3] was more than 1000 nM in each case.
`O=C(c1ccc(C(F)(F)F)cc1)N1CCN(Cc2ccccc2)CC1`: in experiment [1], the Ki came to 915 nM.
As to `Cc1[nH]c2cc(C(F)(F)F)ccc2c(=O)c1CN(C)Cc1ccccc1`, in experiment [2], the Ratio Ki turned out to be 33.2. Besides, the Ki in experiment [1] was found to be 89 nM; in experiment [3] it was 2950 nM.
As to `FC(F)(F)c1cccc(N2CCC(/N=C/c3ccc(Br)cc3)N2)c1` (stereo not given), the Kd in experiment [1] and in experiment [3] was more than 1000 nM each time.
As for `OC1COCCC1NC1CCN(c2ccc(C(F)(F)F)cn2)CC1` (stereo not given), in experiment [2], the Ratio Ki amounted to 0.8. Moreover, the Ki in experiment [1] was determined as 18 nM; in experiment [3] it was 15 nM.
In the case of `NC(=O)c1cccc(CNC2CCN(c3ccc(F)c(Cl)c3)C2)c1` (stereo not given), the Ratio Ki in experiment [2] was 1.1. Further, the Ki came to 220 nM in experiment [1] and 250 nM in experiment [3].
For the compound `Fc1ccc(CN2CCCN(C(=S)Nc3cc(F)cc(F)c3)C2)cc1`, the Ratio Ki in experiment [2] is 41.3. Also, the Ki in experiment [1] amounted to 23 nM; in experiment [3], 949 nM.
The like results for `Cc1nn(CCO)cc1CN(C)Cc1csc(-c2ccccc2)n1` were, in that order, 18.7, 127 nM and 2370 nM.

For the origin of these results see ChEMBL document CHEMBL4619813, “Virtual Screening for Ligand Discovery at the σ1 Receptor” (ACS Med Chem Lett, 2020).
